Three compounds from patent US4264572A, “X-ray contrast media” (Schering Aktiengesellschaft, priority 1978, dated 1981) can be followed below.

Series [1] relates to rat. Nature of the series: general tolerance, LD50 i.v. in rat (7 days). The note with it: meglumine salts. Format: in vivo.
Series [2] is described as follows: coefficient of distribution in 1-butanol/tris-HCl buffer. Format: physicochemical. The note with it: pH 7.6, 1-butanol/tris-HCl buffer; meglumine salts. An excerpt:
It is furthermore seen from this table that the interaction of the new compounds with proteins is much less than that of the known comparison substances.

The subject of series [3] is rat. Nature of the series: neural tolerance, ED50 pericerebral in rat (24 hours). The note with it: meglumine salts.

Structures are written as SMILES. Some results are limits rather than exact numbers.

With `CNC(=O)c1c(I)c(C(=O)NCC(=O)Nc2c(I)c(C(=O)O)c(I)c(C(=O)NCCO)c2I)c(I)c(N(C)C(=O)COC)c1I` [A, 5-(3-N-methylmethoxyacetamido-5-methylcarbamoyl-2,4,6-triiodine-benzamidoacetamido)-N-(2-hydroxyethyl)-2,4,6-triiodine-isophthalamic acid], in the series on rat [1], the “Tolerance LD50 i.v. (7 days)” value is ~ 10,000 mg I/kg of rat. Also, the “Coefficient of Distribution” value in series [2] is below 0.001. The “Protein Bond” value in the series with proteins worked out at 2.5. The “Tolerance ED50 pericerebral (24 hours)” value in the series with rat [3] is reported as ~ 100 mg I/kg of rat.

Take `CNC(=O)c1c(I)c(C(=O)NCC(=O)Nc2c(I)c(C(=O)O)c(I)c(C(=O)NCCO)c2I)c(I)c(N(C)C(C)=O)c1I` [B, 5-(3-N-methyl-acetamido-2,4,6-triiodine-5-methylcarbamoyl-benzamido-acetamido)-N-(2-hydroxyethyl)-2,4,6-triiodine-isophthalamic acid]: the “Tolerance LD50 i.v. (7 days)” value in the series on rat [1] is given as ~ 7,500 mg I/kg of rat. Besides, the “Coefficient of Distribution” value in series [2] worked out at 0.033. Moreover, in the series with proteins, the “Protein Bond” value is 6.8. Also, the “Tolerance ED50 pericerebral (24 hours)” value in the series with rat [3] is ~ 40 mg I/kg of rat.

Regarding `CNC(=O)c1c(I)c(NC(C)=O)c(I)c(C(=O)O)c1I` [C, 5-acetamido-2,4,6-triiodine-N-methyl-isophthalamic acid], the “Tolerance LD50 i.v. (7 days)” value in the series on rat [1] is listed as ~ 7,500 mg I/kg of rat. Also, the “Coefficient of Distribution” value in series [2] is recorded as 0.017. Further, in the series with proteins, the “Protein Bond” value came to 7.6. Besides, the “Tolerance ED50 pericerebral (24 hours)” value with rat [3] is given as 60 mg I/kg of rat.
